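Cultured in 96-well plates, cells were exposed to test compound for 48 hours across five concentrations. TGI: concentration producing complete growth inhibition.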
How the values were obtained:
Assay in all cases: DTP human tumour cell line panel, 48 h
[1] = system: 786-0 renal
[2] = system: A498 renal
[3] = system: A549 NSCLC
[4] = system: ACHN renal
[5] = system: CAKI-1 renal
[6] = system: CCRF-CEM leukemia
[7] = system: COLO 205 colon
[8] = system: DU-145 prostate
[9] = system: EKVX NSCLC
[10] = system: HCC-2998 colon
[11] = system: HCT-116 colon
[12] = system: HCT-15 colon
[13] = system: HL-60(TB) leukemia
[14] = system: HOP-62 NSCLC
[15] = system: HOP-92 NSCLC
[16] = system: HS 578T breast
[17] = system: HT29 colon
[18] = system: IGROV1 ovarian
[19] = system: K-562 leukemia
[20] = system: KM12 colon
[21] = system: LOX IMVI melanoma
[22] = system: M14 melanoma
[23] = system: MALME-3M melanoma
[24] = system: MCF7 breast
[25] = system: MDA-MB-231 breast
[26] = system: MDA-MB-435
[27] = system: MDA-N
[28] = system: MOLT-4 leukemia
[29] = system: NCI-H226 lung
[30] = system: NCI-H23 lung
[31] = system: NCI-H460 lung
[32] = system: NCI/ADR-RES ovarian
[33] = system: OVCAR-3 ovarian
[34] = system: OVCAR-4 ovarian
[35] = system: OVCAR-5 ovarian
[36] = system: OVCAR-8 ovarian
[37] = system: PC-3 prostate
[38] = system: RPMI-8226 leukemia
[39] = system: RXF 393 renal
[40] = system: SF-268 CNS
[41] = system: SF-295 CNS
[42] = system: SF-539 CNS
[43] = system: SK-MEL-2 melanoma
[44] = system: SK-MEL-28 melanoma
[45] = system: SK-MEL-5 melanoma
[46] = system: SK-OV-3 ovarian
[47] = system: SN12C renal
[48] = system: SNB-19 CNS
[49] = system: SNB-75 CNS
[50] = system: SR leukemia
[51] = system: SW-620 colon
[52] = system: T-47D breast
[53] = system: TK-10 renal
[54] = system: U251 CNS
[55] = system: UACC-257 melanoma
[56] = system: UACC-62 melanoma
[57] = system: UO-31 renal
[58] = system: BT-549 breast
[59] = system: NCI-H522 lung

Measured: TGI

O=c1oc2ccccc2c(-c2ccc(O)cc2)c1Oc1ccccc1
9.26 µM: [23]
> 79.3 µM: [49]
18.5 µM: [43]
> 75.7 µM: [5] | [29]
26.6 µM: [15]
49.9 µM: [9]
> 56.7 µM: [34]
19.8 µM: [10]
> 31.6 µM: [21] | [36]
25.6 µM: [40]
18.2 µM: [16]
> 63.9 µM: [8]
> 66.1 µM: [44]
32.1 µM: [22]
> 63.3 µM: [33]
> 96.1 µM: [37]
> 96.7 µM: [53]
18.6 µM: [18] | [56]
66.4 µM: [1]
> 69.6 µM: [7]
> 66.9 µM: [3]
> 75.5 µM: [42]
32.3 µM: [57]
> 70 µM: [12]
30.7 µM: [55]
41.2 µM: [45]
20.5 µM: [31]
> 74 µM: [39]
> 68.5 µM: [20]
53.6 µM: [41]
24.9 µM: [54]
> 87.9 µM: [11]
58.5 µM: [27]
18.7 µM: [30]
23.5 µM: [2]
50.6 µM: [48]
70 µM: [35]
55.3 µM: [47]
not listed: [58] | [59]
> 100 µM: all other assays above

Cc1csc(=Nc2ccccc2)n1CCC(O)(P(=O)(O)O)P(=O)(O)O
not listed: [2] | [6] | [13] | [15] | [19] | [26] | [28] | [34] | [38] | [43] | [44] | [47] | [50] | [51] | [52] | [54]
> 100 µM: all other assays above

COC(=O)C1CC2CC1C1C2SC(F)(F)C1(F)F (configuration not stated)
not listed: [6] | [13] | [15] | [17] | [19] | [30] | [58]
> 100 µM: all other assays above
